From the supplement of paper PMC10307832

Tests used:
Assay in all cases: relative viability (nuclei count vs DMSO), 5 days (fraction); higher = more cells survive
ABC-1 = system: ABC-1
Outline: (§1)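 After 5 days of treatment, lung cancer cells in 1536-well plates were fixed and stained in a single step (final 0.05% Triton X-100, 1% formaldehyde, 1 ug/ml Hoechst) and their nuclei counted on 4× images. Treatment had been applied by pin tool the day after seeding as one drug alone or as a fixed anchor-drug dose with five library-drug doses (not always all listed) in √10 steps. Relative viability is the nuclei count of treated wells divided by that of vehicle wells, and values are medians of duplicate plates.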

COR-L 105 = system: COR-L 105
Outline: as §1

NCI-H3122 = system: NCI-H3122
Outline: as §1

NCI-H1666 = system: NCI-H1666
Outline: as §1

NCI-H727 = system: NCI-H727
Outline: as §1

NCI-H2170 = system: NCI-H2170
Outline: as §1

PC-14 = system: PC-14
Outline: as §1

NCI-H460 = system: NCI-H460
Outline: as §1

LK-2 = system: LK-2
Outline: as §1

LOU-NH91 = system: LOU-NH91
Outline: as §1

NCI-H1650 = system: NCI-H1650
Outline: as §1

NCI-H1437 = system: NCI-H1437
Outline: as §1

CAL-12T = system: CAL-12T
Outline: as §1

201T = system: 201T
Outline: as §1

NCI-H661 = system: NCI-H661
Outline: as §1

BEN = system: BEN
Outline: as §1

EKVX = system: EKVX
Outline: as §1

HARA = system: HARA
Outline: as §1

NCI-H2009 = system: NCI-H2009
Outline: as §1

NCI-H441 = system: NCI-H441
Outline: as §1

HCC-366 = system: HCC-366
Outline: as §1

O=c1cc(N2CCOCC2)oc2c(-c3cccc4c3sc3ccccc34)cccc12 + C[C@@H](Oc1cc(-c2cnn(C3CCNCC3)c2)cnc1N)c1c(Cl)ccc(F)c1Cl [Crizotinib] (partner 1 µM)
relative viability (ABC-1; first compound 0.01 µM): 1.26 | relative viability (ABC-1; first compound 0.03162 µM): 0.654 | relative viability (ABC-1; first compound 0.1 µM): 0.983 | relative viability (ABC-1; first compound 0.3162 µM): 1.06 | relative viability (ABC-1; first compound 1 µM): 1.11 | relative viability (COR-L 105; first compound 0.01 µM): 0.655 | relative viability (COR-L 105; first compound 0.03162 µM): 0.649 | relative viability (COR-L 105; first compound 0.1 µM): 0.856 | relative viability (COR-L 105; first compound 0.3162 µM): 0.724 | relative viability (COR-L 105; first compound 1 µM): 0.589 | relative viability (NCI-H3122; first compound 0.01 µM): 0.269 | relative viability (NCI-H3122; first compound 0.03162 µM): 0.273 | relative viability (NCI-H3122; first compound 0.1 µM): 0.274 | relative viability (NCI-H3122; first compound 0.3162 µM): 0.297 | relative viability (NCI-H3122; first compound 1 µM): 0.284 | relative viability (NCI-H1666; first compound 0.01 µM): 0.971 | relative viability (NCI-H1666; first compound 0.03162 µM): 1.05 | relative viability (NCI-H1666; first compound 0.1 µM): 0.905 | relative viability (NCI-H1666; first compound 0.3162 µM): 0.941 | relative viability (NCI-H1666; first compound 1 µM): 0.812 | relative viability (NCI-H727; first compound 0.01 µM): 0.887 | relative viability (NCI-H727; first compound 0.03162 µM): 0.893 | relative viability (NCI-H727; first compound 0.1 µM): 0.751 | relative viability (NCI-H727; first compound 0.3162 µM): 0.734 | relative viability (NCI-H727; first compound 1 µM): 0.932 | relative viability (NCI-H2170; first compound 0.01 µM): 1.24 | relative viability (NCI-H2170; first compound 0.03162 µM): 1.17 | relative viability (NCI-H2170; first compound 0.1 µM): 1.24 | relative viability (NCI-H2170; first compound 0.3162 µM): 1.12 | relative viability (NCI-H2170; first compound 1 µM): 1.17 | relative viability (PC-14; first compound 0.01 µM): 0.906 | relative viability (PC-14; first compound 0.03162 µM): 0.82 | relative viability (PC-14; first compound 0.1 µM): 0.85 | relative viability (PC-14; first compound 0.3162 µM): 0.843 | relative viability (PC-14; first compound 1 µM): 0.795 | relative viability (NCI-H460; first compound 0.01 µM): 0.822 | relative viability (NCI-H460; first compound 0.03162 µM): 0.99 | relative viability (NCI-H460; first compound 0.1 µM): 0.988 | relative viability (NCI-H460; first compound 0.3162 µM): 1.1 | relative viability (NCI-H460; first compound 1 µM): 0.922 | relative viability (LK-2; first compound 0.01 µM): 0.227 | relative viability (LK-2; first compound 0.03162 µM): 0.258 | relative viability (LK-2; first compound 0.1 µM): 0.219 | relative viability (LK-2; first compound 0.3162 µM): 0.193 | relative viability (LK-2; first compound 1 µM): 0.243 | relative viability (LOU-NH91; first compound 0.01 µM): 0.705 | relative viability (LOU-NH91; first compound 0.03162 µM): 0.695 | relative viability (LOU-NH91; first compound 0.1 µM): 0.717 | relative viability (LOU-NH91; first compound 0.3162 µM): 0.738 | relative viability (LOU-NH91; first compound 1 µM): 0.698 | relative viability (NCI-H1650; first compound 0.03162 µM): 0.906 | relative viability (NCI-H1650; first compound 0.1 µM): 0.872 | relative viability (NCI-H1650; first compound 0.3162 µM): 0.826 | relative viability (NCI-H1650; first compound 1 µM): 0.921 | relative viability (NCI-H1437; first compound 0.01 µM): 0.963 | relative viability (NCI-H1437; first compound 0.03162 µM): 0.896 | relative viability (NCI-H1437; first compound 0.1 µM): 0.959 | relative viability (NCI-H1437; first compound 0.3162 µM): 0.915 | relative viability (NCI-H1437; first compound 1 µM): 0.82 | relative viability (CAL-12T; first compound 0.01 µM): 0.58 | relative viability (CAL-12T; first compound 0.03162 µM): 0.657 | relative viability (CAL-12T; first compound 0.1 µM): 0.767 | relative viability (CAL-12T; first compound 0.3162 µM): 0.591 | relative viability (CAL-12T; first compound 1 µM): 0.775 | relative viability (201T; first compound 0.01 µM): 1 | relative viability (201T; first compound 0.03162 µM): 1.01 | relative viability (201T; first compound 0.1 µM): 0.981 | relative viability (201T; first compound 0.3162 µM): 1.01 | relative viability (201T; first compound 1 µM): 1.03 | relative viability (NCI-H661; first compound 0.01 µM): 1.06 | relative viability (NCI-H661; first compound 0.03162 µM): 0.983 | relative viability (NCI-H661; first compound 0.1 µM): 0.927 | relative viability (NCI-H661; first compound 0.3162 µM): 0.817 | relative viability (NCI-H661; first compound 1 µM): 0.92 | relative viability (BEN; first compound 0.01 µM): 0.853 | relative viability (BEN; first compound 0.03162 µM): 0.892 | relative viability (BEN; first compound 0.1 µM): 0.877 | relative viability (BEN; first compound 0.3162 µM): 0.951 | relative viability (BEN; first compound 1 µM): 0.893 | relative viability (EKVX; first compound 0.01 µM): 1.04 | relative viability (EKVX; first compound 0.03162 µM): 0.881 | relative viability (EKVX; first compound 0.1 µM): 1.18 | relative viability (EKVX; first compound 0.3162 µM): 0.915 | relative viability (EKVX; first compound 1 µM): 0.995 | relative viability (HARA; first compound 0.01 µM): 0.996 | relative viability (HARA; first compound 0.03162 µM): 1.05 | relative viability (HARA; first compound 0.1 µM): 1.26 | relative viability (HARA; first compound 0.3162 µM): 1.13 | relative viability (HARA; first compound 1 µM): 0.988 | relative viability (NCI-H2009; first compound 0.01 µM): 1.03 | relative viability (NCI-H2009; first compound 0.03162 µM): 0.921 | relative viability (NCI-H2009; first compound 0.1 µM): 1.02 | relative viability (NCI-H2009; first compound 0.3162 µM): 0.995 | relative viability (NCI-H2009; first compound 1 µM): 0.935 | relative viability (NCI-H441; first compound 0.01 µM): 0.841 | relative viability (NCI-H441; first compound 0.03162 µM): 0.785 | relative viability (NCI-H441; first compound 0.1 µM): 1.09 | relative viability (NCI-H441; first compound 0.3162 µM): 0.679 | relative viability (NCI-H441; first compound 1 µM): 0.756 | relative viability (HCC-366; first compound 0.01 µM): 0.457 | relative viability (HCC-366; first compound 0.03162 µM): 0.506 | relative viability (HCC-366; first compound 0.1 µM): 0.66 | relative viability (HCC-366; first compound 0.3162 µM): 0.471 | relative viability (HCC-366; first compound 1 µM): 0.598
